# From patent publication US20050221328A1, “Inhibitors of inflammatory gene activity and cholesterol biosynthesis” (Wyeth, priority 2002, published 2005)
# Tests used:
# [1] = test system: hepatic inflammatory gene expression
# Procedure: Ovariectornized C57BL/6 mice (16-20g) (Taconic) were separated into groups of 8. After 5-7 days of recuperation, the mice were fed a casein based diet (#8117, Test Diet, Richmond, IN) for five days. […] At the end of the experimental period, the liver was collected for RNA analysis.
# Liver total RNA was prepared using Trizol reagent (BRL) and quantitated by real time RT-PCR using an ABI PRISM 7700 Detection System according to the manufacturer's protocol (Applied Biosystem). The data was analyzed using the Sequence Dector v1.7 software (Applied Biosystems) and normalized to GAPDH using Applied Biosystems primer set.
# Feeding C57BL/6 mice a high fat diet containing cholate has been shown previously to induce inflammatory gene expression in the mouse liver after 3-5 weeks (Liao et al '93 JCI 91:2572, Evans et al. '01 Circ Res 89:823 & Miyake et al '00 JBC 275:21805).
# To determine whether signaling via FXR was necessary to result in inflammatory gene expression, 1% UDCA was supplemented into the chow diet.
# In particular, referring to FIG. 21a-d, C57BL/6 mice were fed either a chow, atherogenic or high fat diet (atherogenic diet without sodium cholate) as indicated. After 5 weeks, hepatic mRNA levels of the indicated genes were determined by real time PCR. […] After 5 days, hepatic mRNA levels of the indicated genes were determined by real time PCR. Data are reported as mean±SEM for each group. Referring to FIG. 23a-b: C57BL/6 mice were fed a chow diet supplemented with 1% ursodeoxycholic acid (UDCA). After 5 days, hepatic mRNA levels of the indicated genes were determined by real time PCR. […] Data are reported as mean±SEM for each group.
# HepG2 cells = assay: Gene expression in HepG2 cells treated 24 hr with CDCA or GW 4064; format: cell-based, human; settings: HepG2, 24 hr
# Procedure: HepG2 cells were maintained in growth media at 37° C. in a 5% CO2 incubator. The cells were seeded in deficient growth media (phenol red free DMEM (Gibco BRL) supplemented with heat-inactivated 10% FBS, 1% Glutamax, 1% MEM non-essential amino acids, 100 U/ml penicillin and 100 μg/ml streptomycin) at 4-5×10^5 cells per well in a 6 well dish (Falcon). The cells were then placed into serum deficient media for 24 hr before addition of the compounds for an additional 24 hrs. The cells were then harvested for RNA analysis.
# To further investigate the possibility that bile acid signaling through FXR can promote inflammatory gene expression, experiments were conducted in the hepatocyte cell line, HepG2. […] HepG2 cells express a number of inflammatory genes including ICAM-1 and M-CSF constitutively (Stonans et al '99 Cytokine 11:151). […] As positive controls, the induction of SHP mRNA and the repression of cyp7a were confirmed.
# Referring to FIG. 24a-b, HepG2 cells were treated for 24 hr with increasing concentrations of chenodeoxycholic acid (CDCA). […] Data are reported as mean±SEM for each group. C57BL/6 mice. […] Data are reported as mean±SEM for each group.
# [2] = test system: Fnk, JAB, LIX, bcl-3 and SHP; assay: Liver expression of Fnk, JAB, LIX, bcl-3 and SHP by realtime PCR after estrogen receptor ligand pretreatment and IL-1β; settings: mice; 100 ug/kg/day EE, 1 or 10 mg/kg/day E2, 30 mg/kg/day genistein, 5 mg/kg/day raloxifene, 10 mg/kg/day ICI182780; plus IL-1β
# Procedure: Referring to FIG. 3a, to distinguish these two mechanisms, the IL-1β fold induction of Fnk, JAB, LIX, and bcl-3 and the IL-1β fold repression of SHP was quantified in animals pretreated with vehicle (black bars) or 100 ug/kg/day EE (grey bars). Liver RNA levels of each gene (mean +/−SEM) were determined by realtime PCR of RNA from each individual animal.
# Referring to FIGS. 4a, 4b, 4c, 4d and 4e, experiments were conducted to determine whether EE blocks IL-1β induction of gene expression by an estrogen receptor (ER) dependent mechanism. Estrogens can regulate gene expression by many mechanisms including ER independent pathways such as antioxidant mechanisms. […] Liver expression levels of Fnk, JAB, LIX, bcl-3 and SHP (mean +/−SEM) were determined by realtime PCR.
# Referring to FIGS. 5a, 5b, 5c, 5d, and 5e, experiments were conducted to determine whether ERα is required for EE regulation of gene expression in the liver. To determine whether ERα or ERβ mediated the EE effects on IL-1β gene expression in the liver, C57BL/6 wild type mice, C57BL/6 ERαKO mice, or 129 ERβKO mice were pretreated with vehicle (black bars) or […] EE (gray bars) for 5 days followed by a 1 hour treatment with IL-1β. Liver expression levels of Fnk, JAB, LIX, bcl-3, and SHP (mean +/−SEM) were quantified by realtime PCR, with expression in animals receiving vehicle+PBS defined as 1.0.
# SHP = assay: Regulation of SHP expression in mouse liver, six weeks treatment, real time PCR; format: in vivo
# Procedure: Several experiments were conducted to investigate the regulation of SHP expression, as follows. Referring to FIG. 9, ERα regulation of SHP expression in mouse liver was studied. […] Liver expression of SHP was monitored by real time PCR, with normalization for GAPDH expression. […] ICI182780 inhibited this induction.
# human SHP promoter = assay: hSHP promoter luciferase reporter in HepG2 or 293 cells cotransfected with human ERα; format: cell-based; settings: 293 cells with human ERα; for SHP promoter activity, compound alone: 10 nM E2 or 1 uM compound, 24 hours
# Procedure: Referring to FIGS. 11a and 11b, ERα regulation of hSHP promoter activity in human cells was examined. Human HepG2 or 293 cells were cotransfected with a control SV40 driven β-galactosidase plasmid, a luceriferase plasmid driven by 1.4 kb of the human SHP promoter, and an expression plasmid encoding either no protein or human ERα. […] Cell extracts were then analyzed for luciferase activity normalized for β-galactosidase activity.
# Referring to FIGS. 12a, 12b, and 12c, ERα regulation of hSHP promoter activity in 293 cells was examined. Referring to FIGS. 12a and 12b, 293 cells were cotransfected with a control SV4O driven […] plasmid, a luceriferase plasmid driven by either 1.4 kb of the human SHP promoter or a synthetic 2×ERE/TK promoter, and an expression plasmid for human ERα. […] Cell extracts were then analyzed for luciferase activity with normalization for β-galaetosidase activity.
# [3] = C57BL/6 mice, chow with CA 0.01-1.0%, 5 days
# [4] = CDCA 1-100 uM or GW 4064 1-1000 nM
smiles,measurement,setting,value
"C[C@H](CCC(=O)O)[C@H]1CC[C@H]2[C@@H]3[C@H](O)C[C@@H]4C[C@H](O)CC[C@]4(C)[C@H]3C[C@H](O)[C@]12C [CA, cholic acid]",hepatic ICAM-1 mRNA,[1]; [3],dose dependent induction
same,induction of hepatic RANTES mRNA,[1]; [3],1.75 fold
same,induction of hepatic TNFα mRNA,[1]; [3],4 fold
same,induction of hepatic VCAM-1 mRNA,[1]; [3],3 fold
same,CA supplementation sufficient to induce inflammatory gene expression,"[1]; chow fed mice, acute exposure",0.3%
same,induction of hepatic SHP expression,"[1]; mice fed 1% CA or UDCA, 5 days",only observed with CA
"C[C@H](CCC(=O)O)[C@H]1CC[C@H]2[C@@H]3[C@H](O)C[C@@H]4C[C@H](O)CC[C@]4(C)[C@H]3CC[C@]12C [CDCA, chenodeoxycholic acid]",ICAM-1 expression,HepG2 cells; [4],induced in a dose dependent manner
same,M-CSF expression,HepG2 cells; [4],induced in a dose dependent manner
same,SHP mRNA,HepG2 cells; positive control,induction
same,cyp7a expression,HepG2 cells; positive control,repression
C[C@]12CC[C@@H]3c4ccc(O)cc4C[C@@H](CCCCCCCCC[S+]([O-])CCCC(F)(F)C(F)(F)F)[C@H]3[C@@H]1CC[C@@H]2O (stereo partly drawn) [ICI-182780],"effect on regulation of liver Fnk, JAB, LIX, bcl-3 and SHP expression vs IL-1β alone",[2],no effect
same,effect on E2 induction of liver SHP mRNA,"SHP; WT mice, 10 ug/kg/day E2+5 mg/kg/day ICI182780, six weeks",inhibited
same,"SHP promoter activity, compound alone",human SHP promoter,inactive alone
same,effect on E2 activity at SHP promoter,human SHP promoter; 1 uM compound plus 10 nM E2,antagonized
"C[C@H](CCC(=O)O)[C@H]1CC[C@H]2[C@@H]3[C@@H](O)C[C@@H]4C[C@H](O)CC[C@]4(C)[C@H]3CC[C@]12C [UDCA, ursodeoxycholic acid]",cyp3a expression,"[1]; mouse, in vivo",induced
same,cyp7a expression,"[1]; mouse, in vivo",repress
CC/C(=C(\c1ccccc1)c1ccc(OCCN(C)C)cc1)c1ccccc1 [tamoxifen],"liver SHP mRNA levels, WT animals","SHP; ovariectomized wildtype mice, sc six weeks, 10 ug/kg/day E2, 5 mg/kg/day tamoxifen, 5 mg/kg/day PPT",induced
same,"SHP promoter activity, compound alone",human SHP promoter,stimulated
